Reference: PMC9848300, “Discovery of novel enasidenib analogues targeting inhibition of mutant isocitrate dehydrogenase 2 as antileukaemic agents” (Journal of Enzyme Inhibition and Medicinal Chemistry, 2023)
Like-named read-outs stand apart in the source and are kept apart here.

Tests used:
Type in all cases: cell-based
MOLT-4 = assay: NCI 60 antitumor screening (single dose / five doses); details: Homo sapiens
RPMI-8226 = assay: as above; details: Homo sapiens
A549/ATCC = assay: NCI 60 antitumor screening (single dose); details: Homo sapiens; A549/ATCC (non-small cell lung cancer), single dose 10 μM; read-out: Growth inhibition percentage (GI %)
Protocol: (§1) Initially, the anticancer effects of target compounds have been assessed at a single (10 μM) dose. The obtained data have been reported as mean-graph of the percent growth (G%) of the treated cancer cells. Percentage growth inhibition (GI%) is calculated (100 − G%) and pronounced in Table 1. […] Target compounds in series (III) with manipulated linkers disclosed lower potency. Superiorly, eight s-triazine derivatives from the three series (6a, 6c, 6d, 7a, 7g, 7i, 7l, and 8b) have shown potent broad-spectrum anticancer activity against most the examined cell lines, whereas most of the remaining triazine derivatives, 20 derivatives, have exerted selective anti-proliferative actions towards certain cancer cell lines (Supplementary).
(§2) The antitumor screening was performed for 60 human cancer cell lines under the protocol of NCI (www.dtp.nci.nih.gov), the Drug Evaluation Branch, Bethesda, MD. All submitted compounds were nominated based on the degree of structural diversity and computer modelling techniques for evaluation of their anticancer activity. The screening process for antineoplastic activity passes through two successive levels, starting with the assessment of target compounds at a single dose of 10 μM against 60 cancer cell lines on nine types of human tumours. These experiments were done on a triplicate following. The output from the single‐dose screening was covered as a mean graph, and then, analysed by the COMPARE program. Finally, the compounds which disclosed subpanel cancer cell growth (G %) equal to or less than 10% in at least eight cancer cell lines get to pass the assessment against the 60 cell lines at five doses (0.01–100 μM). By using GraphPad Prism version 9.0 (Graphpad Software Inc., La Jolla, CA), GI50, TGI, as well as LC50 dose‐response parameters were computed and presented for each compound (Supplementary information)[55–57].

CAKI-1 = assay: NCI 60 antitumor screening (single dose); details: Homo sapiens
Protocol: as §1, §2

HCC-2998 = assay: NCI 60 antitumor screening (single dose); details: Homo sapiens; HCC-2998 (colon cancer), single dose 10 μM; read-out: Growth inhibition percentage (GI %)
Protocol: as §1, §2

HOP-62 = assay: NCI 60 antitumor screening (single dose); details: Homo sapiens; HOP-62 (non-small cell lung cancer), single dose 10 μM; read-out: Growth inhibition percentage (GI %)
Protocol: as §1, §2

KM 12 = assay: NCI 60 antitumor screening (single dose); details: Homo sapiens, KM12; KM 12 (colon cancer), single dose 10 μM; read-out: Growth inhibition percentage (GI %)
Protocol: as §1, §2

M14 = assay: NCI 60 antitumor screening (single dose); details: Homo sapiens
Protocol: as §1, §2

MCF7 = assay: NCI 60 antitumor screening (single dose); details: Homo sapiens
Protocol: as §1, §2

NCI-H226 = assay: NCI 60 antitumor screening (single dose); details: Homo sapiens; NCI-H226 (non-small cell lung cancer), single dose 10 μM; read-out: Growth inhibition percentage (GI %)
Protocol: as §1, §2

NCI-H23 = assay: NCI 60 antitumor screening (single dose); details: Homo sapiens; NCI-H23 (non-small cell lung cancer), single dose 10 μM; read-out: Growth inhibition percentage (GI %)
Protocol: as §1, §2

NCI-H322M = assay: NCI 60 antitumor screening (single dose); details: Homo sapiens; NCI-H322M (non-small cell lung cancer), single dose 10 μM; read-out: Growth inhibition percentage (GI %)
Protocol: as §1, §2

NCI-H522 = assay: NCI 60 antitumor screening (single dose); details: Homo sapiens; NCI-H522 (non-small cell lung cancer), single dose 10 μM; read-out: Growth inhibition percentage (GI %)
Protocol: as §1, §2

OVCAR-3 = assay: NCI 60 antitumor screening (single dose); details: Homo sapiens
Protocol: as §1, §2

OVCAR-4 = assay: NCI 60 antitumor screening (single dose); details: Homo sapiens
Protocol: as §1, §2

OVCAR-5 = assay: NCI 60 antitumor screening (single dose); details: Homo sapiens
Protocol: as §1, §2

OVCAR-8 = assay: NCI 60 antitumor screening (single dose); details: Homo sapiens
Protocol: as §1, §2

SF-268 = assay: NCI 60 antitumor screening (single dose); details: Homo sapiens; SF-268 (CNS cancer), single dose 10 μM; read-out: Growth inhibition percentage (GI %)
Protocol: as §1, §2

SNB-19 = assay: NCI 60 antitumor screening (single dose); details: Homo sapiens; SNB-19 (CNS cancer), single dose 10 μM; read-out: Growth inhibition percentage (GI %)
Protocol: as §1, §2

TK-10 = assay: NCI 60 antitumor screening (single dose); details: Homo sapiens
Protocol: as §1, §2

U251 = assay: NCI 60 antitumor screening (single dose); details: Homo sapiens, U-251; U251 (CNS cancer), single dose 10 μM; read-out: Growth inhibition percentage (GI %)
Protocol: as §1, §2

HCT-116 = assay: NCI 60 antitumor screening (single dose / five doses); details: Homo sapiens
HCT-15 = assay: as above; details: Homo sapiens
786-0 = assay: as above; details: Homo sapiens
UO-31 = assay: as above; details: Homo sapiens
BT-549 = assay: as above; details: Homo sapiens
T-47D = assay: as above; details: Homo sapiens, T47D; for inhibition at 10 µM: read-out: Growth inhibition percentage (GI %)
[1] = MOLT-4 (leukaemia), single dose 10 μM, read-out: Growth inhibition percentage (GI %)
[2] = RPMI-8226 (leukaemia), single dose 10 μM, read-out: Growth inhibition percentage (GI %)
[3] = CAKI-1 (renal cancer), single dose 10 μM, read-out: Growth inhibition percentage (GI %)
[4] = M14 (melanoma), single dose 10 μM, read-out: Growth inhibition percentage (GI %)
[5] = MCF7 (breast cancer), single dose 10 μM, read-out: Growth inhibition percentage (GI %)
[6] = OVCAR-3 (ovarian cancer), single dose 10 μM, read-out: Growth inhibition percentage (GI %)
[7] = OVCAR-4 (ovarian cancer), single dose 10 μM, read-out: Growth inhibition percentage (GI %)
[8] = OVCAR-5 (ovarian cancer), single dose 10 μM, read-out: Growth inhibition percentage (GI %)
[9] = OVCAR-8 (ovarian cancer), single dose 10 μM, read-out: Growth inhibition percentage (GI %)
[10] = TK-10 (renal cancer), single dose 10 μM, read-out: Growth inhibition percentage (GI %)
[11] = HCT-116 (colon cancer), single dose 10 μM, read-out: Growth inhibition percentage (GI %)
[12] = HCT-15 (colon cancer), single dose 10 μM, read-out: Growth inhibition percentage (GI %)
[13] = 786-0, 786-0 (renal cancer), single dose 10 μM, read-out: Growth inhibition percentage (GI %)
[14] = UO-31 (renal cancer), single dose 10 μM, read-out: Growth inhibition percentage (GI %)
[15] = BT-549 (breast cancer), single dose 10 μM, read-out: Growth inhibition percentage (GI %)
[16] = T-47D (breast cancer), single dose 10 μM

SMILES	inhibition at 10 µM (MOLT-4; [1]) [%]	inhibition at 10 µM (RPMI-8226; [2]) [%]	inhibition at 10 µM (A549/ATCC) [%]	inhibition at 10 µM (CAKI-1; [3]) [%]	inhibition at 10 µM (HCC-2998) [%]	inhibition at 10 µM (HOP-62) [%]	inhibition at 10 µM (KM 12) [%]	inhibition at 10 µM (M14; [4]) [%]	inhibition at 10 µM (MCF7; [5]) [%]	inhibition at 10 µM (NCI-H226) [%]	inhibition at 10 µM (NCI-H23) [%]	inhibition at 10 µM (NCI-H322M) [%]	inhibition at 10 µM (NCI-H522) [%]	inhibition at 10 µM (OVCAR-3; [6]) [%]	inhibition at 10 µM (OVCAR-4; [7]) [%]	inhibition at 10 µM (OVCAR-5; [8]) [%]	inhibition at 10 µM (OVCAR-8; [9]) [%]	inhibition at 10 µM (SF-268) [%]	inhibition at 10 µM (SNB-19) [%]	inhibition at 10 µM (U251) [%]	further results
Clc1cccc(/C=N/Nc2nc(N/N=C/c3cccc(Cl)c3)nc(N3CCOCC3)n2)c1 [compound 6d, 2,4-Bis[(E)-2-[(3-chlorophenyl)methylidene]hydrazin-1-yl]-6-(morpholin-4-yl)-1,3,5-triazine]	94	61.2	53.4	62.4	41	-9.83	69.8	64.8	57	39.6	29.4	46.2	86.1	43.7	33.6	4.53	50.5	34.1	12.1	39.6	GI50 (MOLT-4; MOLT-4, five doses (0.01–100 μM), read-out: GI50): 1490 nM; GI50 (RPMI-8226; RPMI-8226, five doses (0.01–100 μM), read-out: GI50): 1900 nM; inhibition at 10 µM (TK-10; [10]): -0.21%; inhibition at 10 µM (HCT-116; [11]): 77.2%; GI50 (HCT-116; HCT-116, five doses (0.01–100 μM), read-out: GI50): 1270 nM; inhibition at 10 µM (HCT-15; [12]): 111%; GI50 (HCT-15; HCT-15, five doses (0.01–100 μM), read-out: GI50): 910 nM; inhibition at 10 µM (786-0; [13]): 69.4%; GI50 (786-0; 786-0, five doses (0.01–100 μM), read-out: GI50): 1070 nM; inhibition at 10 µM (UO-31; [14]): 73.2%; GI50 (UO-31; UO-31, five doses (0.01–100 μM), read-out: GI50): 1610 nM; inhibition at 10 µM (BT-549; [15]): 7.26%; GI50 (BT-549; BT-549, five doses (0.01–100 μM), read-out: GI50): 3220 nM; inhibition at 10 µM (T-47D; [16]): 31.5%; GI50 (T-47D; T-47D, five doses (0.01–100 μM), read-out: GI50): 3540 nM
Fc1cccc(/C=N/Nc2nc(N/N=C/c3cccc(F)c3)nc(N3CCOCC3)n2)c1 [compound 6e, 2,4-Bis[(E)-2-[(3-Fluorophenyl)methylidene]hydrazin-1-yl]-6-(morpholin-4-yl)-1,3,5-triazine]	33.9	33	6.5	11.3	-2.3	-5.63	0.3	100	19.3	5.56	-1.55	3.82	4.23	19.3	0.54	-3.81	8.56	4.91	1.85	23.8	inhibition at 10 µM (TK-10; [10]): -28.1%; inhibition at 10 µM (HCT-116; [11]): 24.6%; inhibition at 10 µM (HCT-15; [12]): 52.5%; inhibition at 10 µM (786-0; [13]): 54%; inhibition at 10 µM (UO-31; [14]): 30.3%; inhibition at 10 µM (BT-549; [15]): 11.6%; inhibition at 10 µM (T-47D; [16]): 10.3%
O=[N+]([O-])c1cccc(/C=N/Nc2nc(N/N=C/c3cccc([N+](=O)[O-])c3)nc(N3CCOCC3)n2)c1 [compound 6f, 2-(Morpholin-4-yl)-4,6-bis[(E)-2-[(3-nitrophenyl)methylidene]hydrazin-1-yl]-1,3,5-triazine]	–	–	28.6	–	-2.57	26.4	15	–	–	26.4	27.6	5.64	34.8	–	–	–	–	6.36	4.49	17.2	inhibition at 10 µM (MOLT-4; MOLT-4, read-out: Growth inhibition percentage (GI %)): 52.7%; inhibition at 10 µM (RPMI-8226; RPMI-8226, read-out: Growth inhibition percentage (GI %)): 66.4%; inhibition at 10 µM (CAKI-1; CAKI-1, read-out: Growth inhibition percentage (GI %)): 29.5%; inhibition at 10 µM (M14; M14, read-out: Growth inhibition percentage (GI %)): 14%; inhibition at 10 µM (MCF7; MCF7, read-out: Growth inhibition percentage (GI %)): 34.7%; inhibition at 10 µM (OVCAR-3; OVCAR-3, read-out: Growth inhibition percentage (GI %)): 19%; inhibition at 10 µM (OVCAR-4; OVCAR-4, read-out: Growth inhibition percentage (GI %)): 18.4%; inhibition at 10 µM (OVCAR-5; OVCAR-5, read-out: Growth inhibition percentage (GI %)): -17%; inhibition at 10 µM (OVCAR-8; OVCAR-8, read-out: Growth inhibition percentage (GI %)): 39.9%; inhibition at 10 µM (TK-10; TK-10, read-out: Growth inhibition percentage (GI %)): -45.7%; inhibition at 10 µM (HCT-116; HCT-116, read-out: Growth inhibition percentage (GI %)): 35.6%; inhibition at 10 µM (HCT-15; HCT-15, read-out: Growth inhibition percentage (GI %)): 53.2%; inhibition at 10 µM (786-0; 786-0, read-out: Growth inhibition percentage (GI %)): 30.4%; inhibition at 10 µM (UO-31; UO-31, read-out: Growth inhibition percentage (GI %)): 50.7%; inhibition at 10 µM (BT-549; BT-549, read-out: Growth inhibition percentage (GI %)): 11.7%; inhibition at 10 µM (T-47D): 30.9%
